The source of these data is patent US7718684B2, “Methods and materials for assessing prostate cancer therapies and compounds” (The Regents of the University of California, priority 2004, dated 2010).

Structures are written as SMILES.

The test system of test [1] is prostate-specific antigen (PSA) produced by LNCaP cells. Briefly: PSA produced by LNCaP cells. In kind it is cell-based, human.
Test [2] relates to LNCaP-AR cells. The test is described as follows: In vitro growth of LNCaP-AR cells (low androgen / bicalutamide).
For test [3], the system named is LNCaP cells infected with the empty vector. The test is described as follows: In vitro growth of LNCaP vector cells in low androgen. In kind it is cell-based, human. The conditions noted are these: steroid-depleted.
The target in test [4] is AR transcription complex on the promoters of PSA and KLK2 in LNCaP cells (Homo sapiens, UniProt P10275, T878A).
Test [5] concerns AR LBD. The conditions noted are these: cited from earlier work.
Test [6] has as its system LNCaP cells infected with the empty-vector control. The test is described as follows: Microarray of induced genes in LNCaP control cells. It counts as cell-based, human. As to conditions: 10 μM.
In test [7] the test system is LNCaP-AR cells. The test is described as follows: Microarray of induced genes in LNCaP-AR cells. In kind it is cell-based, human.
Test [8] relates to PSA expression in LAPC4 cells expressing increased levels of AR. Briefly: PSA expression in LAPC4 cells with increased AR. The conditions noted are these: androgen-starved.
The test system of test [9] is PSA mRNA and protein expression in parental LAPC4 cells. Briefly: PSA expression in parental LAPC4 cells. As to conditions: androgen-starved.

AR transcription complex on the promoters of PSA and KLK2 in LNCaP cells, sequence (P10275 whole entry T878A, the tested form may be a part, one chain of several): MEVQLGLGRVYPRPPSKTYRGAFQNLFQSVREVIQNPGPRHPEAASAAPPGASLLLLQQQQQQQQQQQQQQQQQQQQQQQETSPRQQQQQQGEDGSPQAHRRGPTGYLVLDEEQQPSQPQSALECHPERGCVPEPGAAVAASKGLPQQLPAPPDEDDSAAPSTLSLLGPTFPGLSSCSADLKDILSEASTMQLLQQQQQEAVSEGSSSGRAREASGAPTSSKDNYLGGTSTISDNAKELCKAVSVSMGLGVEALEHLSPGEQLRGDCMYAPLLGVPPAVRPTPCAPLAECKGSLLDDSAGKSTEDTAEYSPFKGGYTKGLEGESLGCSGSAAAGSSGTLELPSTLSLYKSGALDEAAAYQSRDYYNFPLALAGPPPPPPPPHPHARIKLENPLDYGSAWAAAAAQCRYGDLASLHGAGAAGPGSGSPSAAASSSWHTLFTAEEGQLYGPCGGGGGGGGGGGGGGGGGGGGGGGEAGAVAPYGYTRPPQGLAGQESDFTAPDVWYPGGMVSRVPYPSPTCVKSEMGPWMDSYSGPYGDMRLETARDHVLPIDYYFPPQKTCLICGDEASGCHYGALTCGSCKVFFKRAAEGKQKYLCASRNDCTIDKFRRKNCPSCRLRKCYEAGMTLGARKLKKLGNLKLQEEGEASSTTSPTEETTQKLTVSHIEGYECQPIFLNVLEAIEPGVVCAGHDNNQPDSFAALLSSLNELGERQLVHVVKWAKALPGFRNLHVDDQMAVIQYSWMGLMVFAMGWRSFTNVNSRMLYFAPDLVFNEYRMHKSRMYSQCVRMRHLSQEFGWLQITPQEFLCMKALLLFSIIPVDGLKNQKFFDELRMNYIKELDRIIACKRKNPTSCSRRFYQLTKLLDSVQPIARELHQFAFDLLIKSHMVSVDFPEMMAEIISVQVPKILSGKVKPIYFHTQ

With `CC1(C)C(=O)N(c2ccc(C#N)c(C(F)(F)F)c2)C(=S)N1c1ccc(N=[N+]=[N-])cc1` [Compound 5], in test [1] (LNCaP cells, PSA), the antagonist character entry is reported as “full antagonists”. Besides, the “IC50 for PSA expression compared with bicalutamide” value in test [1] (LNCaP cells, relative to bicalutamide) is on record as “ten-fold lower”. The “agonist and antagonist effects” value in [1] (initial screening and biological testing) is on record as “best antagonist effects without any strong agonist effects”.

With `C[C@]1(O)CC[C@H]2[C@@H]3CCC4=CC(=O)CCC4=C3C=C[C@@]21C` [Compound R1881, R1881], in test [2] (charcoal-stripped serum, relative to vector cells), the “lower concentration supporting growth versus vector cells” value was “at least 80%”. The “concentration needed for growth in charcoal-stripped serum” value in test [3] is reported as 100 pM. In addition, the “recruitment of AR and polymerase II to promoters” value in test [4] was “AR and polymerase II were recruited to both promoters regardless of AR level”.

For the compound `CC1(C)C(=O)N(c2ccc(C#N)c(C(F)(F)F)c2)C(=S)N1CCCCO` [RU59063], the “binding to AR LBD compared with drugs such as bicalutamide” value in test [5] was “more potent binders of the AR LBD”.

As for `CC(O)(CS(=O)(=O)c1ccc(F)cc1)C(=O)Nc1ccc(C#N)c(C(F)(F)F)c1` (stereo not shown) [bicalutamide], the probe sets induced entry in test [6] is “no elements were significantly upregulated”; in [7] (10 μM, 2-fold increase, P<0.05, 500 minimum expression), 48 probe sets. Besides, in test [2] (LNCaP-AR cells), the “growth in the presence of the antiandrogen” value was “resistant”. Further, the “subset of total androgen-regulated genes induced” value in test [7] (of >600 androgen-regulated probe sets) is under 10%. Also, the “effect on PSA expression” value in test [8] is listed as “functioned as an agonist”. For the same compound, the “effect on PSA mRNA and protein expression” value in [9] is given as “typical antagonist activity”.
